Tests used:
[1] = test system: patient with hemolytic PNH and infant; assay: Clinical tolerability and neonatal outcomes; assay type: in vivo, human
Experimental: (§1) Maternal and fetal outcomes were assessed throughout the third trimester and postpartum. Hematological response was evaluated using serial measurements of hemoglobin, hemolytic markers, and transfusion requirements. Complement levels/activity were measured using immunoturbidimetric assays for C3/C4 (Roche Diagnostics, Germany), and 50% hemolytic complement (CH50) by turbidimetric assay (Optilite, Binding Site, UK). Maternal clinical monitoring included evaluation for breakthrough hemolysis, thrombotic events, and other adverse events. Neonatal outcomes included gestational age at delivery, mode of delivery, birth weight, Apgar scores, and any complications identified during birth, hospitalization, or early follow‐up.

[2] = Pegcetacoplan concentration in maternal plasma (LC-MS/MS); assay type: in vivo, human; details: LLOQ 10 µg/mL
Experimental: (§2) Maternal blood samples were obtained during routine collections pre‐ and postpartum. Cord blood samples were obtained from the umbilical vein at the time of delivery. Breast milk samples were collected on postpartum Days 1 and 2. Quantitative analysis of pegcetacoplan concentrations in maternal plasma, umbilical cord blood plasma, and breast milk was performed by an independent, accredited laboratory (Q^2 Solutions BioSciences, USA) using a validated liquid chromatography‐tandem mass spectrometry method incorporating pegcetacoplan‐d22 as internal standard, with lower limits of quantification of 10 and 20 µg/mL for plasma and breast milk, respectively.

complement C3, C4, CH50 = assay: Complement levels/activity (C3/C4 immunoturbidimetric, CH50 turbidimetric) in patient; assay type: in vivo, human; details: for CH50: normal 42–95; for C4: normal 0.1–0.4; for C3: normal 0.9–1.8
Experimental: as §1

hemoglobin response = details: plasma concentration; no reference given; cited from earlier work
Experimental: Pegcetacoplan was undetectable in all three cord blood samples (< 10 µg/mL), with no identifiable mass spectrometry peaks, indicating no measurable transplacental drug transfer. Pegcetacoplan was likewise not detected in breast milk, with concentrations below the lower limit of quantification (< 20 µg/mL, Table 2).

[3] = test system: patient with hemolytic PNH; assay: Hematological response (hemoglobin, hemolytic markers, transfusion requirements) in pregnant patient with PNH; assay type: in vivo, human; details: for Hapto: normal 0.3–2.0; for ARC: normal 10–100; for Hb: normal 115–160; for Bili: normal ≤ 21; for LDH: normal ≤ 214
Experimental: Prophylactic‐dose dalteparin was prescribed. […] Informed consent was obtained for off‐label use in pregnancy, pharmacokinetic sampling, and case reporting. Institutional ethics board review exemption was granted for this single‐patient case report.
as §1

cynomolgus monkeys = details: cynomolgus monkey, in vivo; cited from earlier work
Text: In our case, pegcetacoplan was undetectable in all cord blood and breast milk samples, ...

[4] = Pegcetacoplan concentration in umbilical cord blood plasma (placental transfer, LC-MS/MS); assay type: in vivo, human; details: umbilical vein at delivery, LLOQ 10 µg/mL
Experimental: as §2

[5] = Pegcetacoplan concentration in breast milk (lactational transfer, LC-MS/MS); assay type: in vivo, human
Experimental: as §2

[6] = later the same day following delivery
[7] = 33 w, pegcetacoplan, dose escalation
[8] = 35 + 6 w, pegcetacoplan 1080 mg three times weekly
[9] = 37 + 2 w, date of delivery, pegcetacoplan
[10] = 37 w, pegcetacoplan 1080 mg three times weekly
[11] = 3 + 5 w gestation, on pegcetacoplan before switch to eculizumab
[12] = 28 + 1 w, date of pegcetacoplan reinitiation
[13] = 30 + 3 w, pegcetacoplan overlapping with eculizumab
[14] = after reinitiation of pegcetacoplan at 28 weeks' gestation
[15] = before pregnancy, pegcetacoplan 1080 mg subcutaneous twice-weekly

## CCO[C@H]1CCN(Cc2c(OC)cc(C)c3[nH]ccc23)[C@H](c2ccc(C(=O)O)cc2)C1 [iptacopan]
[1]; before pregnancy, nausea unresponsive to antiemetics
  Tolerability: discontinued due to persistent nausea

## pegcetacoplan
[1]; infant exposed in partial first and full third trimester, 10-month follow-up
  Infant complications: no complications observed
[2]; [6]
  Concentration, maternal plasma, Sample 2: 625 µg/mL
  Concentration, maternal plasma, Sample 3: 587 µg/mL
[2]; morning prior to scheduled cesarean delivery, pegcetacoplan 1080 mg s.c. three times weekly
  Concentration, maternal plasma, Sample 1: 719 µg/mL
Complement C3, C4, CH50; [7]
  CH50: 17 U/mL
Complement C3, C4, CH50; [8]
  C4: 0.43 g/L
  C3: 4.9 g/L
  CH50: 102 U/mL
Complement C3, C4, CH50; [9]
  C4: 0.37 g/L
  C3: 4.7 g/L
  CH50: 88 U/mL
Complement C3, C4, CH50; [10]
  CH50: 82 U/mL
Complement C3, C4, CH50; PP 6 w, pegcetacoplan
  CH50: 99 U/mL
Complement C3, C4, CH50; PP 1 d, pegcetacoplan
  C4: 0.34 g/L
  C3: 4.33 g/L
  CH50: 86.0 U/mL
Complement C3, C4, CH50; PP 2 d, pegcetacoplan
  C4: 0.35 g/L
  C3: 4.5 g/L
  CH50: > 103 U/mL
Complement C3, C4, CH50; PP 3 d, pegcetacoplan
  C4: 0.36 g/L
  C3: 4.44 g/L
  CH50: 97 U/mL
Hemoglobin response
  EC99, effective concentration for maximum hemoglobin response: 597 µg/mL
[3]; [11]
  Hapto: 1.85 g/L
  ARC: 8e+10 L⁻¹
  Hb: 109 g/L
  Bili: 7 µmol/L
  LDH: 153 U/L
[3]; [12]
  ARC: 1.73e+11 L⁻¹
  Hb: 87 g/L
  Bili: 12 µmol/L
  LDH: 208 U/L
[3]; [13]
  ARC: 1.72e+11 L⁻¹
  Hb: 93 g/L
  Bili: 9 µmol/L
  LDH: 205 U/L
[3]; [7]
  Hapto: 0.89 g/L
  ARC: 1.74e+11 L⁻¹
  Hb: 96 g/L
  Bili: 7 µmol/L
  LDH: 215 U/L
[3]; [8]
  Hapto: 0.84 g/L
  ARC: 1.78e+11 L⁻¹
  Hb: 103 g/L
  Bili: 4 µmol/L
  LDH: 208 U/L
[3]; [9]
  ARC: 1.2e+11 L⁻¹
  Hb: 102 g/L
  Bili: 3 µmol/L
  LDH: 210 U/L
[3]; [10]
  Hapto: 0.1 g/L
  ARC: 1.29e+11 L⁻¹
  Hb: 103 g/L
  Bili: 3 µmol/L
  LDH: 231 U/L
[3]; PP 6 w, pegcetacoplan
  ARC: 1.46e+11 L⁻¹
  Hb: 107 g/L
  Bili: 4 µmol/L
  LDH: 203 U/L
[3]; PP 1 d, pegcetacoplan
  ARC: 1.03e+11 L⁻¹
  Hb: 88 g/L
  Bili: 3 µmol/L
  LDH: 378 U/L
[3]; PP 2 d, pegcetacoplan
  ARC: 1.07e+11 L⁻¹
  Hb: 86 g/L
  Bili: 3 µmol/L
  LDH: 351 U/L
[3]; PP 3 d, pegcetacoplan
  ARC: 1.06e+11 L⁻¹
  Hb: 86 g/L
  Bili: 3 µmol/L
  LDH: 327 U/L
[3]; PP 10 d, pegcetacoplan
  Hapto: 1.34 g/L
  ARC: 9.7e+10 L⁻¹
  Hb: 89 g/L
  Bili: 4 µmol/L
  LDH: 280 U/L
[3]; [14]
  Hemoglobin (range) during the third trimester: 92 to 103 g/L
  Transfusions after resumption: no transfusions required
[3]; [15]
  Hemoglobin stabilization: approximately 110 g/L
  Transfusion status: achieved transfusion independence
Cynomolgus monkeys
  Fetal loss: increased fetal loss
  Maternal toxicity or teratogenicity: no evidence
  Placental and breast milk transfer: minimal
[4]
  Concentration, cord blood plasma, Sample 1: < LLOQ
  Concentration, cord blood plasma, Sample 2: < LLOQ
  Concentration, cord blood plasma, Sample 3: < LLOQ
[5]; postpartum Day 1, LLOQ 20 µg/mL
  Concentration, breast milk, Sample 1: < LLOQ
[5]; postpartum Day 2, LLOQ 20 µg/mL
  Concentration, breast milk, Sample 2: < LLOQ

Reference: paper PMC12628701, “Paroxysmal Nocturnal Hemoglobinuria in Pregnancy Treated With Pegcetacoplan: Case Report and Pharmacokinetic Analysis” (EJHaem, 2025)
